Experimental findings from patent publication US12351571B2, “Substituted quinoxaline compounds as inhibitors of FGFR tyrosine kinases” (ARRAY BIOPHARMA INC., priority 2018, dated 2025) are described below.

One assay deals with human wild type FGFR1 (Homo sapiens (Human), UniProt P11362). Kind of assay: FGFR1 pERK Cell Assay. The assay is classed as cell-based. Particulars: HEK-293 cells, 1 hour compound, 100 ng/ml human FGF-acidic; maximum concentration 5 μM. Here is the method:
HEK-293 cells transfected with doxycycline(dox)-inducible human wild type FGFR1 (SEQ ID NO: 1) were plated in a collagen or poly-D-lysine coated 96 well flat bottom plates at 4×10^5 cells/well in complete Dulbecco's Modified Eagle Medium (DMEM) containing 10% FBS and 1 μg/ml doxycycline and allowed to attach for 24 h at 37° C., 5% CO2. Cells were treated with compound using 1:3 serial dilutions with a maximum final concentration of 5 μM. Compound was incubated on cells for 1 hour at 37° C., 5% CO2. Cells were then stimulated with a final concentration of 100 ng/ml human FGF-acidic (R&D Systems Cat number 232-FA/CF) for 5 minutes at 37° C., 5% CO2. Medium was removed, and cells were lysed with lysis buffer containing phosphatase and protease inhibitors. Phospho ERK1/2 was measured using the Meso Scale Discovery sandwich assay (Meso Scale Discovery cat. no. K151DWD). The assay captures phospho ERK1/2 and detects with a sulfo-tagged total ERK1/2 antibody. The chemiluminescent signal was read on the Sector Imager Plate reader. 100 POC was determined using no test compound and 0 POC was determined using a control compound. The POC values were fit to a 4-parameter logistic curve as a function of the concentration of the compound, and the IC50 value is the point where the curve crosses 50 POC.

For the next assay, the target named is FGFR3 (Homo sapiens (Human), UniProt P22607). Kind of assay: FGFR Enzyme Activity Assay (LanthaScreen TR-FRET), FGFR3. It counts as biochemical. To be noted: 25 μM ATP, 10 minute incubation; read-out: FGFR3 Enz FRET IC50. As for the experimental part: FGFR3 kinase activity was measured by the Invitrogen LanthaScreen™ Assay technology which directly measures the amount of substrate phosphorylation by TR-FRET using a flourescently-labeled peptide and Europium-labeled antibody. Briefly, 750 pM N-terminal GST-HIS6 fusion protein with a 3C cleavage site recombinant human FGFR3 (amino acids R397-T806) (ProQinase Cat. No. 1068-0000-1) was incubated with 100 nM Alexa Fluor® 647-Poly-GT Peptide Substrate (Life Technologies Cat. No. PV5836) and 25 μM ATP along with test compound in a buffer consisting of 250 mM HEPES, 25 mM MgCl2, 0.05% TritonX-100, pH 7.5, and 2% DMSO. Compounds were typically prepared in a threefold serial dilution in DMSO and added to the assay to give the appropriate final concentration. After a 10 minute incubation at 22° C., an equal volume of 2 nM LanthaScreen® Eu-PY20 Antibody (Life Technologies Cat. No. PV5691) and 10 mM EDTA were added to quench the kinase reaction and start the detection reaction. After an additional 60 minute incubation at 22° C., the reaction was measured using a PerkinElmer EnVision multimode plate reader via TR-FRET dual wavelength detection, and the percent of control (POC) calculated using a ratiometric emission factor. 100 POC was determined using no test compounds and 0 POC was determined using no enzyme. The POC values were fit to a 4-parameter logistic curve as a function of the concentration of the compound, and the IC50 value is the point where the curve crosses 50 POC.
Chain of FGFR3 (P22607 397-806): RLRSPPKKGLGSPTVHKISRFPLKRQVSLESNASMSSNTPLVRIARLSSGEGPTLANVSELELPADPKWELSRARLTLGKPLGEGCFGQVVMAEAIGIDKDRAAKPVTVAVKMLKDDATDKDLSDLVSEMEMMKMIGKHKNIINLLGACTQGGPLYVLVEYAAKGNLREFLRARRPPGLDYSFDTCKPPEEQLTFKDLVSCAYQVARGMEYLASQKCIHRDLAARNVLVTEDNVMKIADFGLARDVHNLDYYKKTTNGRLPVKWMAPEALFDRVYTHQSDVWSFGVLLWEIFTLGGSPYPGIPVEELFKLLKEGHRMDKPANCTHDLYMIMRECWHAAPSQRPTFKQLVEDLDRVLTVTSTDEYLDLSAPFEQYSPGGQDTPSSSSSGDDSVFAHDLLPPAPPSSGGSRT

The target of the next assay is FGFR1 (Homo sapiens (Human), UniProt P11362). Put plainly: LC/MS FGFR1 kobs assay (covalent modification). It counts as biochemical. Particulars: 500 nM FGFR1, 3 μM compound. Here is the method:
The LC/MS FGFR1 and FGFR3 kobs assays were conducted as follows. 500 nM FGFR1 (Array BioPharma construct p1702; SEQ ID NO: 1, amino acids 458-765) or FGFR3 (Array BioPharma construct p1700; SEQ ID NO: 5, amino acids 449-759) were incubated with 3 μM compound in 25 mM HEPES (4-(2-hydroxyethyl)-1-piperazineethanesulfonic acid), pH 7.4, 5 mM MgCl2, 150 mM NaCl, 0.5 mM TCEP (tris(2-carboxyethyl) phosphine), and 2% DMSO in a total volume of 20 μL. At each time point, the reaction was quenched with 20 μL of 0.4% formic acid. The extent of protein modification by each compound was determined by LC/MS on an Agilent Technologies 6520 Q-TOF LC/MS. Protein signals were then automatically deconvoluted using Agilent Masshunter software. Deconvoluted mass signals were exported to Tibco Spotfire data analysis program for further processing and normalization.
Data analysis included five steps. First, the signals for the “DMSO Controls” were analyzed to determine the percent of signal associated with unmodified FGFR1 or FGFR3 at each time point. Next, the percent of the signal associated with the covalent modification was determined. Third, the average nonmodified “DMSO Control” signal was used to normalize the modified protein signals at each time point. The percent of unmodified protein was fit to an exponential decay model where A0 is the Percent Unmodified at the start of the reaction, and kobs is the observed rate constant over the time period.

Another assay has as its target dephosphorylated FGFR1 (Homo sapiens (Human), UniProt P11362). Kind of assay: FGFR Enzyme Binding Assay (HTRF tracer displacement), FGFR1. To be noted: 5 nM dephosphorylated FGFR1, 60 minute incubation at 22° C.; read-out: FGFR1 Enz Binding IC50. Here is the method:
The potency of compounds inhibiting human isoforms of FGFR kinase was determined using Life Technologies' Homogeneous Time Resolved Fluorescence (HTRF)-based binding assay technology. An incubation was conducted with either 5 nM dephosphorylated FGFR1 (Array Biopharma, p1702; SEQ ID NO: 1, amino acids 458 to 765, dephosphorylated by co-expression with PTP1b (protein tyrosine phosphatase 1B)), 5 nM dephosphorylated FGFR2 (Life Technologies, Cat. No. PV4106 that had been dephosphorylated with Lambda protein phosphatase (New England Biolabs, cat #P0753)) or 5 nM phosphorylated FGFR3 (Array Biopharma, p1836; SEQ ID NO: 5, amino acids 449 to 759), 50 nM Kinase Tracer 236 (Life Technologies Cat. No. PR9078A), 2 nM Biotin-anti-6HIS (Life Technologies Cat. No. PV6090) and 2 nM Europium-Streptavidin (Life Technologies Cat. No. PV6025) along with test compound in a buffer consisting of 50 mM HEPES ((4-(2-hydroxyethyl)-1-piperazineethanesulfonic acid, pH 7.5), 5 mM MgCl2, 0.005% Triton X-100, 1 mM DTT, 1 mM NaVO4 and 2% DMSO in a final volume of 12 μL Compounds were typically prepared as a 3-fold or 4-fold serial dilution in DMSO and added to the assay to give the appropriate final concentration. After a 60 minute incubation at 22° C., the extent of tracer displacement was determined using a PerkinElmer EnVision multimode plate reader via HTRF dual wavelength detection, and the percent of control (POC) was calculated using a ratiometric emission factor. One hundred POC was determined using no test compound, and 0 POC was determined in the presence of 1 μM of an appropriate control inhibitor. A 4-parameter logistic curve was fit to the POC values as a function of the concentration of compound, and the IC50 value was the point where the best-fit curve crossed 50 POC.

The structures appear in SMILES notation.

Chain of human wild type FGFR1 (P11362 22-822): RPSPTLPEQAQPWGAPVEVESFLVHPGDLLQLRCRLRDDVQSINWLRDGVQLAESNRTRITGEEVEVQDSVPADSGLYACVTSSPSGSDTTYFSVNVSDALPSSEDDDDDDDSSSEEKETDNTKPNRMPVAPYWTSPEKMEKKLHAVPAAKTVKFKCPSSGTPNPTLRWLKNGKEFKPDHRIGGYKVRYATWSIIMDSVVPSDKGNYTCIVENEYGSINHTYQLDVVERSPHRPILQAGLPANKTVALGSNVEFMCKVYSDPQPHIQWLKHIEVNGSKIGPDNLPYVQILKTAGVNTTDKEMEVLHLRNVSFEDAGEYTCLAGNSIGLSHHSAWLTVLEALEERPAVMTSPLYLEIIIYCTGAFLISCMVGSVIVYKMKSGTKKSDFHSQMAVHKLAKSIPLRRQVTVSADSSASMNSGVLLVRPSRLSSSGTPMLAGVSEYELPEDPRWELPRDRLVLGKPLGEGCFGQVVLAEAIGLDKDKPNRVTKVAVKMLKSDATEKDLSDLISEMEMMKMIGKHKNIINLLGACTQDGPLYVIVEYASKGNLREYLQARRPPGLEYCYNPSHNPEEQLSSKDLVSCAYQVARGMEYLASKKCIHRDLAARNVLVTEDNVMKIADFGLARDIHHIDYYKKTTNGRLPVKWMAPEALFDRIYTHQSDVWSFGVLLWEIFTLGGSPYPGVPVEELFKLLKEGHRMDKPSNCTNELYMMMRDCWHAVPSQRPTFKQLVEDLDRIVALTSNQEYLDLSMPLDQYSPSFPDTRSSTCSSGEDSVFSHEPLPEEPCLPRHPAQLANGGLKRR
Chain of FGFR1 (P11362 458-765): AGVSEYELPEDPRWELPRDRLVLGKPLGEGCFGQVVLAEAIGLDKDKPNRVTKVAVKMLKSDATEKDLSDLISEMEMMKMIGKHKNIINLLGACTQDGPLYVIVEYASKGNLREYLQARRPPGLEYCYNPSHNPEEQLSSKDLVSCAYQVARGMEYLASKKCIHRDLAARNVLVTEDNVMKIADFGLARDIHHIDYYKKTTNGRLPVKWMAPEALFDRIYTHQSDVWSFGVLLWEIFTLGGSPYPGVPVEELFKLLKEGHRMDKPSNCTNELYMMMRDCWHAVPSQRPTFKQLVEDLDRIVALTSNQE
Chain of dephosphorylated FGFR1 (P11362 458-765): as above

What is called IC50 is the concentration that inhibits the measured activity by half. On to `C=CC(=O)N1CC(F)(C(=O)N2CCN(c3ccc(-c4cnc5ccc(Nc6cc(OC)cc(OC)c6)cc5n4)cn3)CC2)C1` [Example 8, 1-(3-(4-(5-(7-((3,5-dimethoxyphenyl)amino)-quinoxalin-2-yl)pyridin-2-yl)piperazine-1-carbonyl)-3-fluoroazetidin-1-yl)-prop-2-en-1-one], for which the 50% inhibitory concentration (IC50) against human wild type FGFR1 is 1140 nM; on FGFR3, 631 nM; at dephosphorylated FGFR1, 558 nM. The “FGFR1 Enz kobs” value at FGFR1 stood at 0.00384 min⁻¹.

Regarding `C=CC(=O)N1CC(O)(C(=O)N2CCC(n3cc(-c4cnc5ccc(Nc6cc(OC)cc(OC)c6)cc5n4)cn3)CC2)C1` [Example 26, 1-(3-(4-(4-(7-((3,5-dimethoxyphenyl)amino)quinoxalin-2-yl)-1H-pyrazol-1-yl)piperidine-1-carbonyl)-3-hydroxyazetidin-1-yl)prop-2-en-1-one], the half-maximal inhibitory concentration (IC50) at human wild type FGFR1 is 1650 nM; on FGFR3 it was 14 nM; on dephosphorylated FGFR1 it was 37 nM. The “FGFR1 Enz kobs” value on FGFR1 was found to be 0.00288 min⁻¹.

As for `COc1cc(Nc2ccc3ncc(-c4cnn(C5CCN(C(=O)C6(C#N)CN(C(=O)/C=C/CN(C)C)C6)CC5)c4)nc3c2)cc(OC)c1` [Example 11, (E)-3-(4-(4-(7-((3,5-dimethoxyphenyl)amino)-quinoxalin-2-yl)-1H-pyrazol-1-yl)piperidine-1-carbonyl)-1-(4-(dimethyl-amino)but-2-enoyl)-azetidine-3-carbonitrile], the IC50 is 149 nM against human wild type FGFR1, 7 nM at FGFR3 and 44 nM on dephosphorylated FGFR1. The “FGFR1 Enz kobs” value on FGFR1 was found to be 0.01822 min⁻¹.

As to `COc1cc(Nc2ccc3ncc(-c4c(C)nn(C5CCN(C(=O)C6(F)CN(C(=O)/C=C/CN(C)C)C6)CC5)c4C)nc3c2)cc(OC)c1` [Example 23, (E)-1-(3-(4-(4-(7-((3,5-dimethoxyphenyl)amino)-quinoxalin-2-yl)-3,5-dimethyl-1H-pyrazol-1-yl)piperidine-1-carbonyl)-3-fluoroazetidin-1-yl)-4-(dimethylamino)but-2-en-1-one], the concentration for half-maximal inhibition (IC50) amounted to 1940 nM against human wild type FGFR1, 972 nM on FGFR3 and 842 nM at dephosphorylated FGFR1. For the same compound, the “FGFR1 Enz kobs” value on FGFR1 came to 0.00386 min⁻¹.

Turning to `COc1cc(Nc2ccc3ncc(-c4ccc(N5CCN(C(=O)C6(F)CN(C(=O)/C=C/CN(C)C)C6)CC5)nc4C)nc3c2)cc(OC)c1` [Example 13, (E)-1-(3-(4-(5-(7-((3,5-dimethoxyphenyl)amino)-quinoxalin-2-yl)-6-methylpyridin-2-yl)-piperazine-1-carbonyl)-3-fluoroazetidin-1-yl)-4-(dimethylamino)but-2-en-1-one], the IC50 was found to be 1830 nM on FGFR3 and 6620 nM on dephosphorylated FGFR1. Also, on FGFR1, the “FGFR1 Enz kobs” value stood at 0.00293 min⁻¹.

On to `COc1cc(Nc2ccc3ncc(-c4cnn([C@@H]5CCN(C(=O)C6CN(C(=O)/C=C/CN(C)C)C6)C5)c4)nc3c2)cc(OC)c1` [Example 20, (R,E)-1-(3-(3-(4-(7-((3,5-dimethoxyphenyl)amino)-quinoxalin-2-yl)-1H-pyrazol-1-yl)pyrrolidine-1-carbonyl)azetidin-1-yl)-4-(dimethylamino)but-2-en-1-one], for which the concentration for half-maximal inhibition (IC50) against human wild type FGFR1 was ≥ 5000 nM; on FGFR3 it was 42 nM; at dephosphorylated FGFR1 it was 53 nM. The “FGFR1 Enz kobs” value at FGFR1 is 0.00141 min⁻¹.

As to `C=CC(=O)N1CC(C(=O)N2CCN(c3cccc(-c4cnc5ccc(Nc6cc(OC)cc(OC)c6)cc5n4)c3)CC2)C1` [Example 25, 1-(3-(4-(3-(7-((3,5-dimethoxyphenyl)amino)-quinoxalin-2-yl)phenyl)-piperazine-1-carbonyl)-azetidin-1-yl)prop-2-en-1-one], the half-maximal inhibitory concentration (IC50) at FGFR3 came out at 479 nM; at dephosphorylated FGFR1 it was 759 nM. Further, the “FGFR1 Enz kobs” value at FGFR1 is 0.00404 min⁻¹.

Turning to `C=CC(=O)N1CCC(C(=O)N2CCC(n3cc(-c4cnc5ccc(Nc6cc(OC)cc(OC)c6)cc5n4)cn3)CC2)CC1` [Example 3, 1-(4-(4-(4-(7-((3,5-dimethoxyphenyl)amino)-quinoxalin-2-yl)-1H-pyrazol-1-yl)piperidine-1-carbonyl)piperidin-1-yl)prop-2-en-1-one], the IC50 on human wild type FGFR1 amounted to 350 nM; at FGFR3, 10 nM; on dephosphorylated FGFR1 it was 26 nM.
